Laboratory results as given in paper PMC8041823, “Structural comparison of Acinetobacter baumannii β-ketoacyl-acyl carrier protein reductases in fatty acid and aryl polyene biosynthesis” (Scientific Reports, 2021).

Molecular target: T1, AbApeQ (Acinetobacter baumannii, UniProt Z9NHK5QJZ4)
T1 construct: full-length, pET28a, N-terminal His-tag removed with thrombin, expressed in E. coli BL21 (DE3)
Assay: X-ray crystallography (co-crystallization)
Type: binding
Settings: 1:3 molar ratio of NADPH; 0.2 M potassium sodium tartrate, 20% PEG 3350; active site; NADPH density in two of four molecules

NC(=O)C1=CN([C@@H]2O[C@H](COP(=O)(O)OP(=O)(O)OC[C@H]3O[C@@H](n4cnc5c(N)ncnc54)[C@H](OP(=O)(O)O)[C@@H]3O)[C@@H](O)[C@H]2O)C=CC1 [NADPH]
X-ray crystallography (co-crystallization): We obtained the structure of the AbApeQ–NADPH complex by co-crystallization of AbApeQ and NADPH.
